Source: article PMC6128596, “Cyclooxygenase pathway mediates the inhibition of Na-glutamine co-transporter B0AT1 in rabbit villus cells during chronic intestinal inflammation” (PLoS ONE, 2018)

Test system: T1, B0AT1
T1 construct: gene SLC6A19; native full-length transporter in brush border membrane vesicles from rabbit ileal villus cells; not purified
Experiment: Na-dependent [3H]glutamine uptake into villus BBMV, […] s, rapid filtration
Type: biochemical, Oryctolagus cuniculus
Settings: control (normal) rabbits; 0.2-100 mM glutamine; 100 mM NaCl versus choline chloride; pH 7.5; 3H-glutamine tracer

- Km: 24.6 ± 1.8 mM
Structure (SMILES): NC(=O)CC[C@H](N)C(=O)O [glutamine]
